{"source": "patent US8829007B2", "about": "(priority 2009, dated 2014)", "data": [{"test_system": "A/PR/8/34 influenza virus", "experiment": "microbe, parasite or virus in culture", "assay_type": "cell-based", "conditions": "Influenza A virus, PR/8, MDCK, MDCK cells infected with A/PR/8/34, bDNA viral RNA; read-out: EC50 (mean all)", "units": {"EC50": "µM"}, "values": [{"molecule": "Fc1cnc(-c2c[nH]c3ncc(Cl)cc23)nc1N[C@H]1CCCN(CC(F)F)C1", "note": "[Compound 1, (S)-2-(5-chloro-1H-pyrrolo[2,3-b]pyridin-3-yl)-N-(1-(2,2-difluoroethyl)piperidin-3-yl)-5-fluoropyrimidin-4-amine]", "EC50": "< 5"}]}, {"test_system": "A/PR/8/34 influenza virus", "experiment": "microbe, parasite or virus in culture", "assay_type": "cell-based", "conditions": "Influenza A virus, PR/8, MDCK, MDCK cells infected with A/PR/8/34; replication of influenza virus (viral RNA, bDNA); class symbols; read-out: EC50 (mean all)", "units": {"EC50": "µM"}, "values": [{"molecule": "CS(=O)(=O)N[C@@H]1CCCC[C@H]1CNc1nc(-c2c[nH]c3ncc(Cl)cc23)ncc1F", "note": "(relative stereo) [Compound 557, N-(trans-2-((2-(5-chloro-1H-pyrrolo[2,3-b]pyridin-3-yl)-5-fluoropyrimidin-4-ylamino)methyl)cyclohexyl)methanesulfonamide]", "EC50": "< 5"}, {"molecule": "C[C@@]1(C(=O)O)CCCC[C@H]1Nc1nc(-c2c[nH]c3ncc(Cl)cc23)ncc1F", "note": "(stereo in doubt) [Compound 582, Trans-2-(2-(5-chloro-1H-pyrrolo[2,3-b]pyridin-3-yl)-5-fluoropyrimidin-4-ylamino)-1-methylcyclohexanecarboxylic acid]", "EC50": "< 5"}, {"molecule": "CC(C)(O)CN1CCC[C@H](Nc2nc(-c3c[nH]c4ncc(Cl)cc34)ncc2F)C1", "note": "[Compound 546]", "EC50": "< 5"}, {"molecule": "COC(=O)N[C@H]1CCC[C@@H](Nc2nc(-c3c[nH]c4ncc(Cl)cc34)ncc2F)C1", "note": "[Compound 548, Methyl N-[(1S,3R)-3-[[2-(5-chloro-1H-pyrrolo[2,3-b]pyridin-3-yl)-5-fluoro-pyrimidin-4-yl]amino]cyclohexyl]carbamate]", "EC50": "< 5"}, {"molecule": "CN(C)C(=O)N[C@H]1CCC[C@@H](Nc2nc(-c3c[nH]c4ncc(Cl)cc34)ncc2F)C1", "note": "[Compound 549, 3-[(1S,3R)-3-[[2-(5-chloro-1H-pyrrolo[2,3-b]pyridin-3-yl)-5-fluoro-pyrimidin-4-yl]amino]cyclohexyl]-1,1-dimethyl-urea]", "EC50": "< 5"}, {"molecule": "COCC(O)CN1CC[C@H](C)[C@H](Nc2nc(-c3c[nH]c4ncc(Cl)cc34)ncc2F)C1", "note": "(some centres unmarked) [Compound 550]", "EC50": "< 5"}, {"molecule": "CC(C)OCC(O)CN1CCCC(Nc2nc(-c3c[nH]c4ncc(Cl)cc34)ncc2F)C1", "note": "[Compound 551, 1-((S)-3-((2-(5-chloro-1H-pyrrolo[2,3-b]pyridin-3-yl)-5-fluoropyrimidin-4-ylamino)piperidin-1-yl)-3-isopropoxypropan-2-ol]", "EC50": "< 5"}, {"molecule": "COC1CCC[C@H](Nc2nc(-c3c[nH]c4ncc(Cl)cc34)ncc2F)C1", "note": "(stereo partly drawn) [Compound 552, 2-(5-chloro-1H-pyrrolo[2,3-b]pyridin-3-yl)-5-fluoro-N-((1S)-3-methoxycyclohexyl)pyrimidin-4-amine]", "EC50": "< 5"}, {"molecule": "CC(C(=O)O)N1CCCC(Nc2nc(-c3c[nH]c4ncc(Cl)cc34)ncc2F)C1", "note": "[Compound 573, 2-((S)-3-((2-(5-chloro-1H-pyrrolo[2,3-b]pyridin-3-yl)-5-fluoropyrimidin-4-ylamino)piperidin-1-yl)propanoic acid]", "EC50": "< 5"}, {"molecule": "COCCOC(=O)[C@H]1CCCC[C@@H]1Nc1nc(-c2c[nH]c3ncc(Cl)cc23)ncc1F", "note": "[Compound 574, (1S,2S)-2-methoxyethyl 2-(2-(5-chloro-1H-pyrrolo[2,3-b]pyridin-3-yl)-5-fluoropyrimidin-4-ylamino)cyclohexanecarboxylate]", "EC50": "< 5"}, {"molecule": "COC(=O)[C@H]1CCCC[C@@H]1Nc1nc(-c2c[nH]c3ncc(Cl)cc23)ncc1F", "note": "[Compound 575, (1S,2S)-methyl 2-(2-(5-chloro-1H-pyrrolo[2,3-b]pyridin-3-yl)-5-fluoropyrimidin-4-ylamino)cyclohexanecarboxylate]", "EC50": "< 5"}, {"molecule": "CC(=O)N[C@@H]1CCC[C@H](Nc2nc(-c3c[nH]c4ncc(Cl)cc34)ncc2F)C1", "note": "[Compound 576, N-[(1R,3S)-3-[[2-(5-chloro-1H-pyrrolo[2,3-b]pyridin-3-yl)-5-fluoro-pyrimidin-4-yl]amino]cyclohexyl]acetamide]", "EC50": "< 5"}, {"molecule": "O=C(O)CN1CCC[C@H](Nc2nc(-c3c[nH]c4ncc(Cl)cc34)ncc2F)C1", "note": "[Compound 577]", "EC50": "< 5"}]}, {"test_system": "A/PR/8/34 influenza virus", "experiment": "microbe, parasite or virus in culture", "assay_type": "cell-based", "conditions": "Influenza A virus, PR/8, mean all; replication of A/PR/8/34 influenza virus (bDNA assay); read-out: EC50", "units": {"EC50": "µM"}, "values": [{"molecule": "C[C@]1(C(=O)O)CCC[C@H](Nc2nc(-c3c[nH]c4ncc(Cl)cc34)ncc2F)[C@H]1O", "note": "(single isomer, unassigned) [Compound 928]", "EC50": "< 5"}]}, {"test_system": "A/PR/8/34 influenza virus", "experiment": "microbe, parasite or virus in culture", "assay_type": "cell-based", "conditions": "MDCK cells infected with A/PR/8/34; replication of influenza virus (viral RNA, bDNA); class symbols; read-out: EC50 (mean all)", "units": {"EC50": "µM"}, "values": [{"molecule": "CC(=O)N[C@@H]1CCC[C@H](Nc2nc(-c3c[nH]c4ncc(Cl)cc34)ncc2F)C1", "note": "[Compound 547, N-[(1R,3S)-3-[[2-(5-chloro-1H-pyrrolo[2,3-b]pyridin-3-yl)-5-fluoro-pyrimidin-4-yl]amino]cyclohexyl]acetamide]", "EC50": "< 5"}]}, {"test_system": "A/PR/8/34 influenza virus", "experiment": "microbe, parasite or virus in culture", "assay_type": "cell-based", "conditions": "[…]; replication of influenza virus (viral RNA, bDNA); class symbols; read-out: EC50 (mean all)", "units": {"EC50": "µM"}, "values": [{"molecule": "CC[C@]1(C(=O)O)CCCC[C@H]1Nc1nc(-c2c[nH]c3ncc(Cl)cc23)ncc1F", "note": "(relative stereo) [Compound 585, cis-2-(2-(5-chloro-1H-pyrrolo[2,3-b]pyridin-3-yl)-5-fluoropyrimidin-4-ylamino)-1-ethylcyclohexanecarboxylic acid]", "EC50": "< 5"}]}, {"test_system": "influenza A virus (A/PR/8/34)", "experiment": "microbe, parasite or virus in culture", "assay_type": "cell-based", "conditions": "Influenza A virus, PR/8, MDCK, MDCK cells infected with A/PR/8/34; survival of infected cells; class symbols; read-out: IC50 (mean all)", "units": {"IC50": "µM"}, "values": [{"molecule": "COCC(=O)N1CCC[C@H](CNc2ccnc(-c3c[nH]c4ncc(Cl)cc34)n2)C1", "note": "[Compound 491, (R)-1-(3-((2-(5-chloro-1H-pyrrolo[2,3-b]pyridin-3-yl)pyrimidin-4-ylamino)methyl)piperidin-1-yl)-2-methoxyethanone]", "IC50": "< 5"}, {"molecule": "CC(C)CC(=O)N1CCC[C@H](CNc2ccnc(-c3c[nH]c4ncc(Cl)cc34)n2)C1", "note": "[Compound 494, (R)-1-(3-((2-(5-chloro-1H-pyrrolo[2,3-b]pyridin-3-yl)pyrimidin-4-ylamino)methyl)piperidin-1-yl)-3-methylbutan-1-one]", "IC50": "5 to 20"}, {"molecule": "CS(=O)(=O)N1CCCC(Nc2nc(-c3c[nH]c4ncc(Cl)cc34)ncc2F)CC1", "note": "(centres unmarked) [Compound 496, N-(2-(5-chloro-1H-pyrrolo[2,3-b]pyridin-3-yl)-5-fluoropyrimidin-4-yl)-1-(methylsulfonyl)azepan-4-amine]", "IC50": "5 to 20"}, {"molecule": "COC(=O)N1CCCC(Nc2nc(-c3c[nH]c4ncc(Cl)cc34)ncc2F)CC1", "note": "(centres unmarked) [Compound 498, methyl 4-(2-(5-chloro-1H-pyrrolo[2,3-b]pyridin-3-yl)-5-fluoropyrimidin-4-ylamino)azepane-1-carboxylate]", "IC50": "< 5"}, {"molecule": "O=C1NCCCC[C@@H]1Nc1ccnc(-c2c[nH]c3ncc(F)cc23)n1", "note": "[Compound 501]", "IC50": "5 to 20"}, {"molecule": "O=C1CC[C@H](CNc2nc(-c3c[nH]c4ncc(Cl)cc34)ncc2F)N1", "note": "[Compound 503]", "IC50": "< 5"}, {"molecule": "CC(C)(C)OC(=O)N1CCOCC1CNc1nc(-c2c[nH]c3ncc(Cl)cc23)ncc1F", "note": "(centres unmarked) [Compound 515, Tert-Butyl 3-((2-(5-chloro-1H-pyrrolo[2,3-b]pyridin-3-yl)-5-fluoropyrimidin-4-ylamino)methyl)morpholine-4-carboxylate]", "IC50": "> 20"}, {"molecule": "CCC(=O)N1CCOCC1CNc1nc(-c2c[nH]c3ncc(Cl)cc23)ncc1F", "note": "(centres unmarked) [Compound 516, 1-(3-((2-(5-chloro-1H-pyrrolo[2,3-b]pyridin-3-yl)-5-fluoropyrimidin-4-ylamino)methyl)morpholino)propan-1-one]", "IC50": "5 to 20"}, {"molecule": "CCCNC(=O)N1CCOCC1CNc1nc(-c2c[nH]c3ncc(Cl)cc23)ncc1F", "note": "(centres unmarked) [Compound 517, 3-((2-(5-chloro-1H-pyrrolo[2,3-b]pyridin-3-yl)-5-fluoropyrimidin-4-ylamino)methyl)-N-propylmorpholine-4-carboxamide]", "IC50": "5 to 20"}, {"molecule": "CCN(CC)C(=O)[C@@H]1CCCC[C@@H]1Nc1nc(-c2c[nH]c3ncc(Cl)cc23)ncc1F", "note": "[Compound 518, (1R,2S)-2-(2-(5-chloro-1H-pyrrolo[2,3-b]pyridin-3-yl)-5-fluoropyrimidin-4-ylamino)-N,N-diethylcyclohexanecarboxamide]", "IC50": "> 20"}, {"molecule": "CCNC(=O)[C@@H]1CCCC[C@@H]1Nc1nc(-c2c[nH]c3ncc(Cl)cc23)ncc1F", "note": "[Compound 519, (1R,2S)-2-(2-(5-chloro-1H-pyrrolo[2,3-b]pyridin-3-yl)-5-fluoropyrimidin-4-ylamino)-N-ethylcyclohexanecarboxamide]", "IC50": "5 to 20"}, {"molecule": "CCN(CC)C(=O)[C@H]1CCCC[C@@H]1Nc1nc(-c2c[nH]c3ncc(Cl)cc23)ncc1F", "note": "[Compound 520]", "IC50": "> 20"}, {"molecule": "CCNC(=O)[C@H]1CCCC[C@@H]1Nc1nc(-c2c[nH]c3ncc(Cl)cc23)ncc1F", "note": "[Compound 521, (1S,2S)-2-(2-(5-chloro-1H-pyrrolo[2,3-b]pyridin-3-yl)-5-fluoropyrimidin-4-ylamino)-N-ethylcyclohexanecarboxamide]", "IC50": "5 to 20"}, {"molecule": "CN(C)[C@H]1CCCC[C@@H]1Nc1nc(-c2c[nH]c3ncc(Cl)cc23)ncc1F", "note": "[Compound 523, (1S,2S)—N1-(2-(5-chloro-1H-pyrrolo[2,3-b]pyridin-3-yl)-5-fluoropyrimidin-4-yl)-N2,N2-dimethylcyclohexane-1,2-diamine]", "IC50": "> 20"}]}, {"test_system": "influenza A virus (A/PR/8/34)", "experiment": "microbe, parasite or virus in culture", "assay_type": "cell-based", "conditions": "MDCK cells infected with A/PR/8/34; survival of infected cells; class symbols; read-out: IC50 (mean all)", "units": {"IC50": "µM"}, "values": [{"molecule": "COC(=O)CCC(=O)N1CCCC(CNc2ccnc(-c3c[nH]c4ncc(Cl)cc34)n2)C1", "note": "(centres unmarked) [Compound 492]", "IC50": "5 to 20"}, {"molecule": "CS(=O)(=O)N1CC(Nc2nc(-c3c[nH]c4ncc(Cl)cc34)ncc2F)C1", "note": "[Compound 508]", "IC50": "> 20"}, {"molecule": "NC1CCCC(Nc2ccnc(-c3c[nH]c4ncc(Cl)cc34)n2)C1", "note": "(centres unmarked) [Compound 510]", "IC50": "> 20"}]}, {"test_system": "influenza A virus (A/PR/8/34)", "experiment": "microbe, parasite or virus in culture", "assay_type": "cell-based", "conditions": "read-out: IC50", "units": {"IC50": "µM"}, "values": [{"molecule": "COP(=O)(OC)[C@@]1(O)CCC[C@H](Nc2nc(-c3c[nH]c4ncc(Cl)cc34)ncc2F)C1", "note": "[Compound 741]", "IC50": "< 5"}, {"molecule": "COP(=O)(OC)[C@]1(O)CCC[C@H](Nc2nc(-c3c[nH]c4ncc(Cl)cc34)ncc2F)C1", "note": "[Compound 742]", "IC50": "< 5"}]}, {"test_system": "influenza A virus (A/PR/8/34)", "experiment": "microbe, parasite or virus in culture", "assay_type": "cell-based", "conditions": "read-out: IC50 (mean all)", "units": {"IC50": "µM"}, "values": [{"molecule": "(R)-ethyl 3-((2-(5-chloro-1H-pyrrolo[2,3-b]pyridin-3-yl)pyrimidin-4-ylamino)methyl)piperidine-1-carboxylate [Compound 495]", "IC50": "5 to 20"}, {"molecule": "(S)-6-(2-(5-chloro-1H-pyrrolo[2,3-b]pyridin-3-yl)-5-fluoropyrimidin-4-ylamino)-4-(4-methoxybenzyl)-1,4-oxazepan-2-one [Compound 505]", "IC50": "5 to 20"}]}]}
